According to patent US20120315283A1, “METHODS OF PROMOTING TISSUE GROWTH AND TISSUE REGENERATION” (DANA-FARBER CANCER INSTITUTE, INC., priority 2010, published 2012):
“Also recorded” adds a separate entry of the source.

Columns and labels:
[1] = tested on: endothelial cells; assay: Endothelial cell migration; format: cell-based
[2] = tested on: Lewis lung carcinoma (LLC); assay: Spontaneous LLC metastasis model (primary tumor resection); format: in vivo, mouse; conditions: for spontaneous LLC liver, kidney and lymph node metastasis / spontaneous LLC lung metastasis: after LLC resection, 12 days, t-AUCB and TUPS 10 mg/kg/day; for spontaneous LLC liver, kidney and lymph node metastasis: 14,15-EET 15 μg/kg/day, vehicle-treated mice do not develop liver metastasis; for spontaneous LLC lung metastasis: 14,15-EET and 14,15-DHET 15 μg/kg/day; for 14,15-EET-induced spontaneous LLC (lung) metastasis: EET antagonist 0.21 mg/mouse co-administered with 14,15-EET 15 μg/kg/day following LLC resection, day 12
Excerpt: The role of non-cell autonomous effects of endothelial-derived EETs in tumor metastasis was unknown.

[3] = tested on: mice; assay: Lung growth following left pneumonectomy; format: in vivo, mouse; conditions: day 4 post left pneumonectomy, vs vehicle-treated mice, p<0.05
Excerpt: As shown herein, epoxyeicosatrienoic acids (EETs) stimulate angiogenesis, in part via the VEGF signaling network. Since compensated lung growth is dependent on VEGF-induced angiogenesis, it was hypothesized that endothelial cells (ECs) stimulate lung growth via production of EETs. To confirm the effects of CYP2C8 overexpression, EET levels were increased by inhibition of soluble epoxide hydrolase (sEH) following left penumonectomy. […] In contrast, there was no significant change in baseline lung volume/body weight ratio after sham operation.
As shown herein, epoxyeicosatrienoic acids (EETs) stimulate angiogenesis, in part via the VEGF signaling network. Since compensated lung growth is dependent on VEGF-induced angiogenesis, it was hypothesized that endothelial cells (ECs) stimulate lung growth via production of EETs. Transgenic (Tg) mice with EC-specific overexpression of CYP2C8 (Tie2 promoter-driven) were used to study the consequence of increased EETs on lung growth following left pneumonectomy. To confirm the effects of CYP2C8 overexpression, EET levels were increased by inhibition of soluble epoxide hydrolase (sEH). EC-specific overexpression of CYP2C8 promoted contralateral lung growth following unilateral pneumectomy. Lung volume/body weight on day 4 post-pneumonectomy were increased by 23% (p<0.001) in Tg mice compared to WT mice (FIG. 12). […]

[4] = tested on: B16F10 melanoma; assay: Spontaneous B16F10 metastasis after primary tumor resection; format: in vivo, mouse; conditions: 21 days of treatment post B16F10 resection, 10 mg/kg/day
[5] = tested on: mice; assay: Wound healing (ear punch wound assay); format: in vivo, mouse; conditions: systemic TUPS 10 mg/kg/day, day 4, vs vehicle
Excerpt: In one embodiment, a full-thickness wound is effected by removing a section of skin (e.g., 1.5 mm diameter) from the dorsal surface (e.g., back) of an anesthetized animal by e.g., surgical incision. If so desired, the section of skin to be wounded can be pre-treated with a candidate pro-angiogenic factor prior to wound induction by e.g., subcutaneous injection. Alternatively, the wound can be treated using a candidate pro-angiogenic factor coincident with or immediately following wounding using methods known to one of skill in the art. The size, area, rate of healing, contraction and histology of the wound are assessed at different time points by methods known to those of skill in the art. The wound size of an animal is assessed by measuring the unclosed wound area compared to the original wound area. Wound healing can be expressed as either percent wound closure or percent wound closure rate. Wounds can be harvested at different time points by euthanizing the animal and removing a section of skin surrounding the wound site for histological analysis if so desired.
An ear punch model can also be used to assess rates of angiogenesis or wound healing, in a design similar to that for the full thickness dorsal back skin assay. The model consists of wounding the ear of an animal using a circular punch of a standard size (e.g., 2.25 mm). […]

[6] = tested on: mice; assay: Liver regeneration following partial hepatectomy; format: in vivo, mouse; conditions: day 4 following partial hepatectomy, 14,15-EET 15 μg/kg/day via minipump, TUPS 10 mg/kg/day; for liver regeneration: vs vehicle/control; for increase in liver regeneration (liver/body weight ratio): vs vehicle
Excerpt: There were no significant differences in liver/body weight ratio at baseline or following sham operation (FIG. 6D). […] Endothelial cell proliferation was increased in the Tie2-CYP2C8-Tr mice when compared to WT mice (FIG. 6D).

[7] = tested on: LLC tumor cells; assay: Tumor cell (LLC) migration; format: cell-based, mouse; conditions: 14,15-EEZE
[8] = tested on: Lewis lung carcinoma (LLC); assay: Primary LLC tumor growth; format: in vivo, mouse; conditions: for primary LLC tumor growth: systemic, 14,15-EET 15 μg/kg/day minipump, t-AUCB in LLC-GFP tumors, 13 days of treatment, 14,15-EEZE 0.21 mg/mouse, established tumors
[9] = tested on: mice; assay: Endometriosis (ectopically implanted uterine tissue); format: in vivo, mouse; conditions: systemic 14,15-EET 15 μg/kg/day via minipump
[10] = tested on: LLC tumor cells; assay: In vitro tumor cell production of VEGF, LLC; format: cell-based, mouse; conditions: 14,15-EET
[11] = tested on: VEGF production; assay: β-galactosidase staining of LLC tumors in VEGF-LacZ-Tr mice; format: in vivo, mouse; conditions: systemic 14,15-EET 15 μg/kg/day, absent in non-treated size-matched tumors
Excerpt: However, analysis of LLC tumors in VEGF-LacZ-Tr mice in which the LacZ reporter was introduced into the VEGF locus (A. S. Maharaj, M. Saint-Geniez, A. E. Maldonado, P. A. D'Amore, Am J Pathol 168, 639 2006).

[12] = tested on: B16F10 tumor cells; assay: In vitro tumor cell production of VEGF, B16F10; format: cell-based, mouse; conditions: 14,15-EET
[13] = TSP1 null mice, 14,15-EEZE 0.21 mg/mouse

SMILES: CS(=O)(=O)N1CCC(NC(=O)Nc2ccc(OC(F)(F)F)cc2)CC1 [TUPS, 1-(1-methanesulfonyl-piperidin-4-yl)-3-(4-trifluoromethoxy-phenyl)-urea]
- VEGF-mediated endothelial migration ([1]; VEGF-mediated): stimulate VEGF-mediated endothelial migration
- basal endothelial migration ([1]; basal, without VEGF): no significant effects
- spontaneous LLC liver, kidney and lymph node metastasis [2]: induces spontaneous liver metastasis; also recorded: dramatically stimulated; also recorded: increase liver metastasis
- spontaneous LLC lung metastasis [2]: dramatically stimulated
- lung growth/body weight (lung regeneration) [3]: increase in lung regeneration; also recorded: stimulated lung growth/body weight
- spontaneous B16F10 axillary lymph node metastasis [4]: dramatically stimulated; also recorded: increase spontaneous B16F10 axillary lymph node metastasis
- wound healing [5]: accelerates wound healing; also recorded: significantly accelerated wound healing
- liver regeneration [6]: increases liver regeneration
- increase in liver regeneration (liver/body weight ratio) [6]: 38%

SMILES: CCCCCC1OC1CCCCCCC/C=C\CCCC(=O)O (centres unmarked) [14,15-EEZE]
- migration of LLC tumor cells [7]: no significant effect; also recorded: not tumor cell (LLC) migration
- endothelial cell migration (VEGF-induced), inhibition ([1]; 14,15-EEZE, dose-dependent): inhibited endothelial migration in a dose-dependent fashion; also recorded: inhibits VEGF-induced endothelial cell
- 14,15-EET-induced spontaneous LLC (lung) metastasis [2]: reduced lung metastasis
- 14,15-EET-induced macroscopic liver and lymph node metastasis ([2]; EET antagonist co-administered with 14,15-EET following LLC resection): prevented macroscopic liver and lymph node metastasis
- survival ([2]; LLC resection metastasis model, 14,15-EEZE 0.21 mg/mouse): prolongs survival
- plasma VEGF levels ([2]; spontaneous LLC lung metastasis model, 14,15-EEZE 0.21 mg/mouse): reduces plasma VEGF levels
- primary LLC tumor growth in TSP1 null mice [8, 13]: does not significantly inhibit primary LLC tumor growth
- tumor suppression by the EET antagonist [8, 13]: 24%
- tumor suppression by the EET antagonist ([8]; WT mice, 14,15-EEZE 0.21 mg/mouse): 62%
- primary LLC tumor growth [8]: reduced primary LLC growth; also recorded: inhibits primary LLC growth

SMILES: CCCCCC(O)C(O)C/C=C\C/C=C\C/C=C\CCCC(=O)O (centres unmarked) [14,15-DHET]
- spontaneous LLC lung metastasis [2]: has no effect relative to control; also recorded: does not stimulate metastasis

SMILES: CCCCCC1OC1C/C=C\C/C=C\C/C=C\CCCC(=O)O (centres unmarked) [14,15-EET]
- increase in endometriosis ([9]; WT mice, day 6, vs vehicle): 254%
- endometriosis ([9]; day 6, percent of lesions established and area of established lesions): endometriosis is stimulated
- increase in the number of surface lung metastases ([2]; WT mice, 14,15-EET via osmotic mini-pumps at time of LLC resection, 12 days after resection, vs vehicle): 3 fold
- spontaneous LLC liver, kidney and lymph node metastasis [2]: induction of liver, kidney and distant lymph node metastasis; also recorded: increases spontaneous LLC lung metastasis and distant femoral lymph node metastasis
- spontaneous LLC lung metastasis [2]: increases spontaneous lung and distant femoral lymph node metastasis; also recorded: increases spontaneous LLC lung metastasis
- VEGF production by LLC tumor cells in vitro [10]: no significant effect
- primary LLC tumor growth [8]: significantly accelerated primary LLC tumor growth; also recorded: increases primary LLC tumor growth
- β-galactosidase staining (marker of VEGF production) in tumor endothelium and stromal fibroblasts [11]: show β-galactosidase staining; also recorded: stained positively
- VEGF production by B16F10 tumor cells in vitro [12]: no significant effect
- liver regeneration [6]: stimulates liver regeneration
- increase in liver regeneration (liver/body weight ratio) [6]: 21%

SMILES: CCCCCC1OC1CCCCCCCC=CCCCC(=O)NS(C)(=O)=O (centres unmarked) [14,15-EEZE-mSI]
- 14,15-EET-induced spontaneous LLC (lung) metastasis [2]: inhibits lung metastasis induced by 14,15-EET; also recorded: inhibits 14,15-EET- (15 μg/kg/day) induced spontaneous LLC metastasis
